Measured values taken from PMC9120478 (Nature Communications, 2022).
Values joined by “and” are separate entries in the source; they are usually repeats but may differ in a detail not shown here. Equal values may be shown once. Read-outs that look alike come from different tables or passages of the source.

T1: wild-type mouse TRPV3 (Mus musculus, UniProt Q8K424)
T1 construct: expressed in transfected cells; host or cells: HEK 293 S GnTI- cells (baculovirus transduction)
T1 sequence (Q8K424 1-791): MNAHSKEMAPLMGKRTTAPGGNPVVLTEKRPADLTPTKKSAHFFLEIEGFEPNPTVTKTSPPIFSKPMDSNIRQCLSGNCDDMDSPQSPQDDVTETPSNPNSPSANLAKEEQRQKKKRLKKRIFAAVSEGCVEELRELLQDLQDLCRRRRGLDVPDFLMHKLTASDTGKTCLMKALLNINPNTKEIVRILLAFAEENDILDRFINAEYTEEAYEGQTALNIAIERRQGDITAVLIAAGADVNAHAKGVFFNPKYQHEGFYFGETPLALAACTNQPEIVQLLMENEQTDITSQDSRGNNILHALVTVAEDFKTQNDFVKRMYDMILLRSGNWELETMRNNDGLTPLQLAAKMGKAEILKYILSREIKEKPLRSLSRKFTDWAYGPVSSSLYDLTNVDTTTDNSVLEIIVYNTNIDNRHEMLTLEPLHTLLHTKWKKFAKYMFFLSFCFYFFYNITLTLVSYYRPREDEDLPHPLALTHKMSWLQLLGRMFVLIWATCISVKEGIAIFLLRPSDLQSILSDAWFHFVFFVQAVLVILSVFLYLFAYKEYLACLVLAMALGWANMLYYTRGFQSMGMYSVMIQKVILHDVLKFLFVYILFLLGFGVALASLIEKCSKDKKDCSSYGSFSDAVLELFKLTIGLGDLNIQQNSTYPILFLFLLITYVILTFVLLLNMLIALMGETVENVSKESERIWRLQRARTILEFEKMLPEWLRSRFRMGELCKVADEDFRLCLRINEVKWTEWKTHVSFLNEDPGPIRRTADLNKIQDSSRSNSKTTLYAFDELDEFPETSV

T2: F666A mutant TRPV3 (Mus musculus, UniProt Q8K424, F666A)
T2 construct: expressed in transfected cells; host or cells: HEK 293 S GnTI- cells (baculovirus transduction)
T2 sequence (Q8K424 1-791 F666A): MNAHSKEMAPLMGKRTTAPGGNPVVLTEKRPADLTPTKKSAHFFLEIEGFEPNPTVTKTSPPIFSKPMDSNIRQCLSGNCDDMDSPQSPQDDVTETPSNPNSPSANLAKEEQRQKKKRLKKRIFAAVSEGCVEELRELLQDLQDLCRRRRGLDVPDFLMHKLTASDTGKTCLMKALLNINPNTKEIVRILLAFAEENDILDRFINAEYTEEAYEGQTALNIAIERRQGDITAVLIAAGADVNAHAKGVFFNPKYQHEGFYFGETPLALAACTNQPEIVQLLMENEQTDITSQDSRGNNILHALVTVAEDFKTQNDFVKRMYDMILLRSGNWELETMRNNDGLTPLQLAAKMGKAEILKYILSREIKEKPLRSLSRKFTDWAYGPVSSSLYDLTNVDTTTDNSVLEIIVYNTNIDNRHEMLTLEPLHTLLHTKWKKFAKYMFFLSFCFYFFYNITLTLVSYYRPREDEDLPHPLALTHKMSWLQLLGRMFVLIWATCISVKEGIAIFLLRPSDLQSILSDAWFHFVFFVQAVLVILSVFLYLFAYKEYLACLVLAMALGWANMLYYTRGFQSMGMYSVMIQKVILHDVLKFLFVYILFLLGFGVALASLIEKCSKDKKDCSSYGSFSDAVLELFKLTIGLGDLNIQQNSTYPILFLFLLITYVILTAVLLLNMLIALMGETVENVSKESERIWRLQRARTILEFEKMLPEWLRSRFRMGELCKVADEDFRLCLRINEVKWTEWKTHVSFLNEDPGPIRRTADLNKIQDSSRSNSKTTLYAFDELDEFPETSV

B1: Mouse TRPV3 (vanilloid-subfamily member 3 TRP channel) (natural protein)
chain: AHSKEMAPLMGKRTTAPGGNPVVLTEKRPADLTPTKKSAHFFLEIEGFEPNPTVTKTSPPIFSKPMDSNIRQCLSGNCDDMDSPQSPQDDVTETPSNPNSPSANLAKEEQRQKKKRLKKRIFAAVSEGCVEELRELLQDLQDLCRRRRGLDVPDFLMHKLTASDTGKTCLMKALLNINPNTKEIVRILLAFAEENDILDRFINAEYTEEAYEGQTALNIAIERRQGDITAVLIAAGADVNAHAKGVFFNPKYQHEGFYFGETPLALAACTNQPEIVQLLMENEQTDITSQDSRGNNILHALVTVAEDFKTQNDFVKRMYDMILLRSGNWELETMRNNDGLTPLQLAAKMGKAEILKYILSREIKEKPLRSLSRKFTDWAYGPVSSSLYDLTNVDTTTDNSVLEIIVYNTNIDNRHEMLTLEPLHTLLHTKWKKFAKYMFFLSFCFYFFYNITLTLVSYYRPREDEDLPHPLALTHKMSWLQLLGRMFVLIWATCISVKEGIAIFLLRPSDLQSILSDAWFHFVFFVQAVLVILSVFLYLFAYKEYLACLVLAMALGWANMLYYTRGFQSMGMYSVMIQKVILHDVLKFLFVYILFLLGFGVALASLIEKCSKDKKDCSSYGSFSDAVLELFKLTIGLGDLNIQQNSTYPILFLFLLITYVILTFVLLLNMLIALMGETVENVSKESERIWRLQRARTILEFEKMLPEWLRSRFRMGELCKVADEDFRLCLRINEVKWTEWKTHVSFLNEDPGPIRRTADLNKIQDSSRSNSKTTLYAFDELDEFPETSV
notes: TRPV3, mouse; model built for residues 118-756, leaving out 462-470 and 611-621

Key:
wild-type mouse TRPV3 = target: T1, wild-type mouse TRPV3; settings: cited from earlier work; for F340/F380 change normalized to maximal value in the absence of osthole: WT, published before
F666A mutant TRPV3 = target: T2, F666A mutant TRPV3; test: Fura-2 ratiometric Ca2+ uptake, inhibition of 2-APB-evoked response; assay type: cell-based; settings: for F340/F380 change normalized to maximal value in the absence of osthole: F666A
Procedure: GFP-free C-terminally strep-tagged wild-type TRPV3, TRPV3-Y564A, TRPV3-Y594A, TRPV3-F633A, TRPV3-I663W, and TRPV3-F666A were expressed in HEK 293 S GnTI^− cells as previously described[41],[42],[53]. In short, 48 h after transduction, 1-ml aliquots of cell suspension were collected by centrifugation at 550 g for 5 min using an Eppendorf 5424 centrifuge. The cells were resuspended in the pre-warmed modified HEPES-buffered saline (HBS) containing 118 mM NaCl, 4.8 mM KCl, 1 mM MgCl2, 5 mM D-glucose, and 10 mM HEPES pH 7.4 and 5 μg/ml Fura-2 AM (Thermo Fisher Scientific) and incubated for 45 min at 37 °C. The Fura-2-loaded cells were then centrifuged for 5 min at 550 g, resuspended in the pre-warmed, modified HBS and incubated again for 30 min at 37 °C in the dark. The cells were subsequently pelleted and washed twice in the modified HBS. The washed cell pellets were kept on ice in the dark before taking an aliquot for fluorescence measurements. […] We used the lower CaCl2 concentration than before[42],[28] (2.5 mM) to minimize non-specific effects, which often appeared as a drift in the Fura-2 signal at high Ca^2+ concentration, presumably due to cell death as a result of calcium overload. Fluorescence measurements were conducted using a QuantaMaster 40 spectrofluorometer (Photon Technology International) at room temperature in a quartz cuvette under constant stirring. After 60 s since the beginning, the recording was paused and 2-APB was added. After the addition of 2-APB, the recording was continued for the additional 140 s. Changes in intracellular Ca^2+ were measured by taking the ratio of fluorescence emitted at 510 nm at the excitation wavelength of 340 nm and 380 nm. […] The data were processed using Origin 9.0 (OriginLab) software.

[1] = target: the molecule itself; test: cryo-EM structure; TRPV3 reconstituted in cNW30 nanodiscs with soybean lipids; 150 mM NaCl, 20 mM Tris pH 8.0, 1 mM βME, 100 μM dyclonine plus 100 μM more before freezing; C4 symmetry, 3.16 Å
[2] = osthole Conc 1, single experiments

Row | Molecule | F340/F380 change normalized to maximal value in the absence of osthole (wild-type mouse TRPV3; [2]) | F340/F380 change normalized to maximal value in the absence of osthole (wild-type mouse TRPV3; osthole Conc 2.5, single experiments) | F340/F380 change normalized to maximal value in the absence of osthole (wild-type mouse TRPV3; osthole Conc 5, single experiments) | F340/F380 change normalized to maximal value in the absence of osthole (wild-type mouse TRPV3; osthole Conc 8, single experiments) | F340/F380 change normalized to maximal value in the absence of osthole (wild-type mouse TRPV3; osthole Conc 12.5, single experiments) | F340/F380 change normalized to maximal value in the absence of osthole (wild-type mouse TRPV3; osthole Conc 18, single experiments) | F340/F380 change normalized to maximal value in the absence of osthole (wild-type mouse TRPV3; osthole Conc 25, single experiments) | F340/F380 change normalized to maximal value in the absence of osthole (wild-type mouse TRPV3; osthole Conc 50, single experiments) | nHill of osthole inhibition curve, wild-type TRPV3 (wild-type mouse TRPV3; n = 4, published before) | IC50 (wild-type mouse TRPV3; n = 4, published before, read-out: IC50, inhibition of wild-type TRPV3 by osthole) | F340/F380 change normalized to maximal value in the absence of osthole (F666A mutant TRPV3; [2]) | F340/F380 change normalized to maximal value in the absence of osthole (F666A mutant TRPV3; osthole Conc 3, single experiments) | F340/F380 change normalized to maximal value in the absence of osthole (F666A mutant TRPV3; osthole Conc 10, single experiments) | F340/F380 change normalized to maximal value in the absence of osthole (F666A mutant TRPV3; osthole Conc 30, single experiments) | F340/F380 change normalized to maximal value in the absence of osthole (F666A mutant TRPV3; osthole Conc 100, single experiments) | IC50 (F666A mutant TRPV3; HEK 293 GnTI- cells, 200 µM 2-APB after pre-incubation with inhibitor, n = 3) | nHill of inhibition curve, F666A (F666A mutant TRPV3; logistic fit, n = 3) | stoichiometry N [1]
1 | COc1ccc2ccc(=O)oc2c1CC=C(C)C [osthole] | 0.9502 and 0.9764 and 1.106 | 0.949 and 1.067 | 0.9795 and 0.8169 and 0.895 | 0.9193 and 0.8591 and 0.9872 | 0.6517 and 0.6914 and 0.735 | 0.5621 and 0.5685 and 0.5403 | 0.4148 and 0.5672 and 0.4994 | 0.161 and 0.164 and 0.15 and 0.2574 | 1.84 ± 0.14 | 20.5 ± 0.5 µM | 1.064 and 1.053 and 0.962 | 0.8581 and 0.9473 and 0.9415 | 0.7679 and 0.9394 and 0.7809 | 0.5836 and 0.4944 and 0.6286 | 0.1362 and 0.1904 | 33.1 ± 3.8 µM | 1.37 ± 0.19 | 
2 | B1 |  |  |  |  |  |  |  |  |  |  |  |  |  |  |  |  |  | 4
